The values below come from patent US5599974A, “Aldehydic agents for allosteric modification of hemoglobin” (Center for Innovative Technology, priority 1994, dated 1997).

The target in assay [1] is T1, human hemoglobin (HbA) (Homo sapiens, UniProt P69905).
T1 construct: hemoglobin solution
Briefly: Oxygen equilibrium studies of hemoglobin solutions (Hem-O-Scan oxygen dissociation curves). It is filed as biochemical. As to conditions: hemoglobin solution; for P50 D (aver.) / ΔP50 (P50 D - P50 C): Hb 2.7 mM; for P50 D (aver.): compound 10 mM (approx. 4:1), 50 mM HEPES pH 7.4, incubated at 4° C. for two hours; for ΔP50 (P50 D - P50 C): compound 10 mM, 50 mM HEPES pH 7.4, positive = right shift. The source says: In blood, hemoglobin is in equilibrium between two allosteric structures. In the "T" (for tense) state, hemoglobin is de-oxygenated. In the "R" (for relaxed) state, hemoglobin is oxygenated. An oxygen equilibrium curve can be scanned using well known equipment such as the Aminco™ Hem-o-scan to evaluate the affinity and degree of cooperativity (allosteric action) of hemoglobin. In the scan, the Y-axis plots the percent of hemoglobin oxygenation and the X-axis plots the partial pressure of oxygen in millimeters of mercury (mm Hg). If a horizontal line is drawn from the 50% oxygen saturation point to the scanned curve and a vertical line is drawn from the intersection point of the horizontal line with the curve to the partial pressure X-axis, a value commonly known as the P50 is determined. This is the pressure when the hemoglobin is 50% saturated with oxygen. By comparing the P50 value for treated hemoglobin to the P50 value for untreated normal adult human hemoglobin (HbA) under physiological conditions (i.e., 37° C., pH=7.4, and partial carbon dioxide pressure of 40 mm Hg), the degree of allosteric modification can be determined. When the P50 value for treated hemoglobin is lower than for HbA, a high oxygen affinity hemoglobin is indicated and the curve is said to be "left-shifted". Conversely, when the P50 value for treated hemoglobin is higher than for HbA, a low oxygen affinity hemoglobin is indicated and the curve is said to be "right-shifted".
In the oxygen equilibrium studies, the HbA was further purified by dialysis against pH 8.6. Tris buffer (50 mM, containing 40 mg EDTA/L) to remove any residual A2 hemoglobin. The pure HbA fraction was concentrated by using a Schleicher and Schuell colloidion bag apparatus, available from Schleicher and Schuell, Inc., with HEPES buffer (50 mM, pH 7.4) as the exchange buffer. The Hb concentration was determined by using the cyanmet method. The Hb concentration at this point was usually found to be around 35 g% (approximately 5.4 mM). Less than 5% methemoglobin was noted even after several days at 4° C. Oxygen dissociation curves were recorded on an AMINCO Hem-0-Scan oxygen dissociation analyzer available from Travenol Laboratories.
All compounds were dissolved in 50 mM HEPES buffer, pH 7.4, to give 20 mM of drug solution. The Hb (5.4 mM, in HEPES, pH 7.4) and the test compounds (20 mM) were mixed in 1:1 volume ratio (50μL of Hb+50μL of compound solution) to give final concentrations of 2.7 mM and 10mM, respectively (a molar ratio of test compound to hemoglobin of approximately 4:1). A control experiment was prepared by the addition of 50 μL of Hb to 50 μL of HEPES buffer. The mixtures were incubated at 4° C. for two hours before running the oxygen dissociation curves.

Assay [2] deals with T2, HbA (Homo sapiens, UniProt P69905).
T2 construct: co-crystals with compounds
As to the kind of experiment: X-ray diffraction analysis of HbA/drug complexes (difference electron-density maps). Format: binding. Particulars: HbA tetramer/drug molar ratio 1:5 (TB17 1:10), Schiff base reduced, deoxygenated crystals. As for the experimental part:
Reaction of the drug compounds with HbA, crystallization and X-ray data collection of the HbA/drug complexes were performed according to the procedures of Wireko et al., Proc. Natl. Acad. Sci. USA, 1991, 88, 2209, which is herein incorporated by reference, with some slight modifications. Freshly prepared solutions of the synthesized compounds in potassium phosphate buffer were incubated at oxy HbA tetramer/drug molar ratios of 1:5 or 1:10 for at least 24 hours. Sodium cyanoborohydrie in phosphate buffer was added in 10- to 50-fold molar excess of HbA tetramer to reduce the Schiff's base adduct for at least 24 hours. The deoxygenated HbA/compound complexes were set up for crystallizations following the procedures described in Perutz et al., Crys. Growth, 1968, 2, 54, which is herein incorporated by reference, with some slight modifications. X-ray quality crystals for all complexes were obtained after three to seven days. Crystals of TB19 (discussed below) grown with HbA incubated and reduced under deoxygenated conditions was also used for data collection.
X-ray diffraction data for the MS2 complex (discussed below) was collected using a Rigaku AFC5R rotating anode diffractometer to a resolution of 4Å. All hk±1 reflections and their Friedel pairs were collected. One crystal, dimensions 0.3 to 1.2 mm was used for collection. Diffraction data for the rest of the complexes were collected with a Rigaku AFC5R rotating anode diffractometer equipped with an R-axis IIC image plate system, all to a resolution of 1.94A. Crystals of linear dimensions 0.2 to 0.5 mm were used. Data reduction, structure solution and calculation of Fourier difference electron-density maps were as described in Wireko et al., Proc. Natl. Acad. Sci. USA, 1991, 88, 2209.
Models of the compounds created with MMOD and minimized with MM2 force field were fitted to the electron-density by using FRODO on an EVANS and SUTHERLAND PS390 graphic station.
X-ray diffraction analyses were used to study several of the new drug complexes including MS1, MS2, TB8, TB10, TB17, TB19, TB32, TB36, TB62, and TB63. The difference electron-density maps of all complexes discussed are that of the HbA tetramer/drug molar ratio of 1:5, except TB17 which is 1:10. All drug molecules contain at least two functionalities, an aldehyde and a carboxylate, common to all of them. […] The only exception was MS2 where only one of the carboxylate oxygens was involved in the salt bridge interaction. The above binding site, which is common to all of the complexes, will be referred to as the α-cleft binding site. Some of the above drug compounds have additional functional groups which are also involved in additional interaction with other HbA residues, including hydrogen bonding, van der Waals interaction, and a second covalent bonding.
All complexes have two molecules of the drug compounds bound at the above-mentioned α-cleft site and are related by the two fold noncrystallographic axis. These sites are further noted as the α1-cleft site (Val-1α1 binding site), and the α2-cleft site (Val-1α2 binding site). In all complexes, the electron density at the α2-cleft site were slightly bigger and better defined than the electron density at the α1-cleft site. In addition to the binding at the α-cleft site, some of the drug compounds also bind to other secondary sites, including other sites in the α-cleft water cavity, the β-cleft water cavity located at Val-1β, and the Hb polymer contact site located near the residues His-116β and His-117β.

For assay [3], the system named is whole blood. Briefly: Whole-blood studies: effect on the oxygen affinity of whole blood. It is filed as cell-based.

As to `O=Cc1ccc(OCc2ccc(C(=O)O)cc2)c(C(=O)O)c1` [TB34, α-(2-carboxy-4-formylphenoxy)-p-toluic acid], in assay [1], the “P50 D (aver.)” value came out at 14.0 mm Hg and the “ΔP50 (P50 D - P50 C)” value is on record as -6.0 mm Hg.
Take `CC(=O)Oc1ccc(C=O)cc1C(=O)O` [TB8, 5-formylaspirin]: in assay [2], the “binding sites in HbA seen in the difference electron-density map” value is recorded as “binding of TB8 at the two symmetry-related α-cleft sites of Val-1α”. Also, in assay [1], the “P50 D (aver.)” value is 21.0 mm Hg and the “ΔP50 (P50 D - P50 C)” value was -1.0 mm Hg.
As to `O=Cc1ccc(OCc2cccc(COc3ccc(C=O)cc3C(=O)O)c2)c(C(=O)O)c1` [TB10, α,α'bis(2-carboxy-4-formylphenoxy)-m-xylene], in assay [1], the “P50 D (aver.)” value is 26.0 mm Hg and the “ΔP50 (P50 D - P50 C)” value is 4.5 mm Hg.
For `O=Cc1ccc(OC(=O)C(=O)Oc2ccc(C=O)cc2C(=O)O)c(C(=O)O)c1` [TB77, bis(2-carboxy-4-formylphenyl)-oxalate] the same measures were 19.5 mm Hg and -1.5 mm Hg.
As to `O=Cc1ccc(OC(=O)/C=C/C(=O)Oc2ccc(C=O)cc2C(=O)O)c(C(=O)O)c1` [TB40, bis(2-carboxy-4-formylphenyl)-fumerate], in assay [1], the “P50 D (aver.)” value was determined as 14.0 mm Hg and the “ΔP50 (P50 D - P50 C)” value is reported as -6.0 mm Hg.
Consider `O=Cc1ccc(OC(=O)c2ccc(C(=O)Oc3ccc(C=O)cc3C(=O)O)cc2)c(C(=O)O)c1` [TB56, bis(2-carboxy-4-formylphenyl)-terephthalate], for which, in assay [1], the “P50 D (aver.)” value amounted to 16.0 mm Hg and the “ΔP50 (P50 D - P50 C)” value was -4.0 mm Hg.
With `O=Cc1ccc(OCOc2ccc(C=O)cc2C(=O)O)c(C(=O)O)c1` [TB62/45, bis(2-carboxy-4-formylphenoxy)-methane], in assay [2], the “binding sites in HbA seen in the difference electron-density map” value is reported as “binding exclusively at the two symmetry-related α-cleft sites”. Besides, in assay [1], the “P50 D (aver.)” value is given as 51.0 mm Hg and the “ΔP50 (P50 D - P50 C)” value turned out to be 29.0 mm Hg.
On to `O=Cc1ccc(OCCCCCCCCCCOc2ccc(C=O)cc2C(=O)O)c(C(=O)O)c1` [TB73, 1,10-bis(2-carboxy-4-formylphenoxy)-decane], for which, in assay [1], the “P50 D (aver.)” value stood at 33.0 mm Hg and the “ΔP50 (P50 D - P50 C)” value was 11.0 mm Hg.
Turning to `O=Cc1ccc(OCCCCCOc2ccc(C=O)cc2C(=O)O)c(C(=O)O)c1` [TB57, 1,5-bis(2-carboxy-4-formylphenoxy)-pentane], in assay [1], the “P50 D (aver.)” value was determined as 33.0 mm Hg and the “ΔP50 (P50 D - P50 C)” value is listed as 11.0 mm Hg.
For `O=Cc1ccc(OCCOc2ccc(C=O)cc2C(=O)O)c(C(=O)O)c1` [TB63/41, 1,2-Bis(2-Carboxy-4-formylphenoxy)-ethane], the “binding sites in HbA seen in the difference electron-density map” value in assay [2] is “binding exclusively at the two symmetry-related α-cleft sites”. In assay [1], the “P50 D (aver.)” value is reported as 46.0 mm Hg and the “ΔP50 (P50 D - P50 C)” value is recorded as 24.0 mm Hg.
As for `O=Cc1ccc(OCC=CCOc2ccc(C=O)cc2C(=O)O)c(C(=O)O)c1` [TB18, 1,4-bis(2-carboxy-4-formylphenoxy)-2-butene], the “P50 D (aver.)” value in assay [3] (heparinized whole blood mixed 1:1 with test compound solution, equilibrated 1 hour at 37° C., P50 C 25.0) was 19.0 mm Hg. Also, in assay [3] (whole blood), the “direction of shift of the oxygen equilibrium curve” value was “left shift”. Besides, the “ΔP50 D” value in assay [3] (whole blood, 1 hour at 37° C., P50 D - P50 C) is -6.0 mm Hg. In assay [1], the “direction of shift of the oxygen equilibrium curve” value is reported as “right shift”, the “P50 D (aver.)” value came to 40.0 mm Hg and the “ΔP50 (P50 D - P50 C)” value came out at 18.0 mm Hg.
As for `O=Cc1ccc(OCc2ccccc2COc2ccc(C=O)cc2C(=O)O)c(C(=O)O)c1` [TB5, α, α'-bis(2-carboxy-4-formylphenoxy)-o-xylene], in assay [1], the “P50 D (aver.)” value was determined as 31.0 mm Hg and the “ΔP50 (P50 D - P50 C)” value came to 9.5 mm Hg.
Take `O=Cc1ccc(OCCCOc2ccc(C=O)cc2C(=O)O)c(C(=O)O)c1` [TB36, 1,3-bis(2-carboxy-4-formylphenoxy)-propane]: in assay [2], the “binding sites in HbA seen in the difference electron-density map” value is on record as “binding exclusively at the two symmetry-related α-cleft sites”. In assay [1], the “P50 D (aver.)” value came to 44.0 mm Hg and the “ΔP50 (P50 D - P50 C)” value was found to be 22.0 mm Hg.
As for `O=Cc1ccc(OCc2ccc(COc3ccc(C=O)cc3C(=O)O)cc2)c(C(=O)O)c1` [TB11, α,α'bis(2-carboxy-4-formylphenoxy)-p-xylene], in assay [1], the “P50 D (aver.)” value was 24.0 mm Hg and the “ΔP50 (P50 D - P50 C)” value was found to be 2.5 mm Hg.
For “2-phenylethyloxy-5-formylbenzoic acid [TB32]”, in assay [1], the “P50 D (aver.)” value worked out at 18.0 mm Hg and the “ΔP50 (P50 D - P50 C)” value was -2.0 mm Hg.
For `O=Cc1ccc(OCCCCCCCCOc2ccc(C=O)cc2C(=O)O)c(C(=O)O)c1` [TB58, 1,8-bis(2-carboxy-4-formylphenoxy)-octane], in assay [1], the “P50 D (aver.)” value stood at 37.0 mm Hg and the “ΔP50 (P50 D - P50 C)” value was 15.0 mm Hg.
`O=Cc1ccc(C(=O)O)cc1` [MS2, 4-carboxybenzaldehyde]: the “binding sites in HbA seen in the difference electron-density map” value in assay [2] was “binding exclusively at the two symmetry-related α-cleft sites”. Besides, in assay [1], the “P50 D (aver.)” value is given as 21.0 mm Hg and the “ΔP50 (P50 D - P50 C)” value is 2.0 mm Hg.
For `O=Cc1ccc(OC(=O)CCC(=O)Oc2ccc(C=O)cc2C(=O)O)c(C(=O)O)c1` [TB80, bis(2-carboxy-4-formylphenyl)-succinate], in assay [1], the “P50 D (aver.)” value amounted to 14.5 mm Hg and the “ΔP50 (P50 D - P50 C)” value is recorded as -5.5 mm Hg.
As for `O=Cc1ccc(OCCCCOc2ccc(C(=O)O)cc2)c(C(=O)O)c1` [TB35], in assay [1], the “P50 D (aver.)” value came out at 25 mm Hg and the “ΔP50 (P50 D - P50 C)” value turned out to be 4 mm Hg.
With `CC(CCCOc1ccc(C=O)cc1C(=O)O)Oc1ccc(C=O)cc1C(=O)O` (stereo not drawn) [TB72, 1,4-bis(2-carboxy-4-formylphenoxy)-pentane], in assay [1], the “P50 D (aver.)” value is recorded as 30.0 mm Hg and the “ΔP50 (P50 D - P50 C)” value was determined as 8.0 mm Hg.
With `O=Cc1ccc(OCCCCCCOc2ccc(C=O)cc2C(=O)O)c(C(=O)O)c1` [TB42, 1,6-bis(2-carboxy-4-formylphenoxy)-hexane], in assay [1], the “P50 D (aver.)” value is listed as 39.0 mm Hg and the “ΔP50 (P50 D - P50 C)” value is recorded as 17.0 mm Hg.
